The values that follow come from ChEMBL document CHEMBL3507680, “University of Dundee, Gates Library screen for HepG2 cell viability”.

SMILES strings stand for the structures.

A short description of the data set: Human HepG2 cell viability assay in 384 well format. It counts as toxicity, cell-based. Details: dose 125 nL, time 70.5 hour; concentration not given beside the values. Particulars: HepG2 cells, read-out: Inhibition.
On to `Cc1ccc(F)c2c1CCCN2C(=O)Cc1c(C)nn(C)c1C`, for which the cytotoxicity at 70.5 h is -5.29%.
Turning to `O=C(c1ccc(S(=O)(=O)NC2CCC2)cc1)N1CC[C@H]2CNC[C@H]21`, the cytotoxicity at 70.5 h was -3.93%.
`CCc1nc(CC2CN(c3ncnc4sc(C)c(C)c34)CCO2)no1` (centres undefined): the cytotoxicity at 70.5 h is -19.7%.
Turning to `CCCN1CCN(c2nc(N)nc3c2nc(C)n3C)CC1`, the cytotoxicity at 70.5 h came to 20.9%.
To `CC(NC(=O)CCNC(=O)c1ccoc1)c1ccccc1` (centres undefined) belongs -7.29%; to `O=C1N(CCO)CCCC12CCN(Cc1noc(C3CCCC3)n1)C2` (centres undefined), 5.43%; to `O=C1N[C@H]2OCCC[C@H]2[C@H](c2ccc(C(=O)O)cc2)N1`, 12.6%.
For `CCc1ccc(C(=O)Nc2ccc(CC3CC(=O)NC3=O)cc2)cc1` (centres undefined), the cytotoxicity at 70.5 h amounted to 1.34%.
As for `O=C(c1ccc2c(c1)OCO2)N1CCCC(n2ccnc2)C1` (centres undefined), the cytotoxicity at 70.5 h amounted to 10.2%.
Regarding `CC1(C)[C@H](Cc2cc(CO)on2)C[C@@H]1N(CC1CC1)CC1CC1`, the cytotoxicity at 70.5 h was 5.68%.
For the molecule `O=C(NCCN1CCOCC1)c1n[nH]c(=O)c2ccccc12`, the cytotoxicity at 70.5 h was -10.8%.
To `Cc1nc(N)cc(C2(C)CCCNC2)n1` (centres undefined) belongs -5.33%.
Turning to `COc1ccc(S(=O)(=O)NCC(N)c2ccccc2)c(C)c1` (centres undefined), the cytotoxicity at 70.5 h is -5.68%.
As to `CCCOc1cc(F)ccc1NC(=O)NCc1noc(C)n1`, the cytotoxicity at 70.5 h is -3.88%.
As to `CN(Cc1ccc(Cl)s1)C(=O)CN(C)C1CCc2ccccc21` (centres undefined), the cytotoxicity at 70.5 h was -13.1%.
The same measure for `Cc1ccc(CN(CC(=O)N2CCOC(C)C2)C2CC2)cc1` (centres undefined): -6.74%; for `Cc1cccc(C(Nc2nccc(-c3ccc(C)nc3C)n2)C2CC2)n1` (centres undefined): -3.12%; for `c1cncc(-c2nccc(CN3CCC(N4CCCCC4)CC3)n2)c1`: 18.5%.
As for `Cc1n[nH]c(C2CN(C(=O)c3cc4c(s3)CCC4)CCO2)n1` (centres undefined), the cytotoxicity at 70.5 h is -14.5%.
As for `N#Cc1cc(F)ccc1NCC1CCS(=O)(=O)CC1`, the cytotoxicity at 70.5 h is -1.39%.
Take `CC(C)(C)CCN1CCN(c2snc(Cl)c2C#N)CC1`: the cytotoxicity at 70.5 h amounted to 4.63%.
The same measure for `c1ccc(Cc2nc(CN3CCCC3Cn3cncn3)cs2)cc1` (centres undefined): -7.1%; for `CS(=O)(=O)N1CCc2[nH]cnc2C12CCN(C(=O)c1cccnc1)CC2`: -0.221%; for `c1cnc(-c2nc(C3CCOC3)no2)cn1` (centres undefined): -3.44%.
On to `Cc1ccnc(N2CCC(NCCOc3ccccc3)CC2)n1`, for which the cytotoxicity at 70.5 h was -4.28%.
Take `Cc1ccc(F)cc1CC(=O)N(CCN1CCOCC1)Cc1ccco1`: the cytotoxicity at 70.5 h was -6.95%.
To `Cc1nc(-c2cncnc2C2CCCNC2)no1` (centres undefined) belongs 26.9%; to `COc1ccccc1C(O)CNc1nccc(-c2ccc(C)nc2C)n1` (centres undefined), -14%.
Consider `CCn1nnc2c1C(COC)CN(Cc1ccco1)C2` (centres undefined), for which the cytotoxicity at 70.5 h is 39.7%.
For the molecule `COc1ccc(CN2CC[C@H](NC(C)=O)[C@@H](O)CC2)c(F)c1`, the cytotoxicity at 70.5 h is -5.93%.
Consider `Cc1noc(C)c1CN1CC2(CCCCN2C)CC1=O` (centres undefined), for which the cytotoxicity at 70.5 h was 17.1%.
The same measure for `Cc1nn(C)c2nc(C(C)C)cc(C(=O)Nc3n[nH]c(C4CC4)n3)c12`: 27%.
Consider `COCCc1noc(-c2cn(Cc3ccccc3C)nn2)n1`, for which the cytotoxicity at 70.5 h is -4.41%.
The same measure for `Cc1ccc(OCCN(C)S(=O)(=O)N2CCOCC2)cc1`: -0.648%; for `Cc1nn(C)c(N(C)C)c1CNCc1cccc(CN(C)C)c1`: -3.97%.
`CCC(=O)N1CCC(c2nc(C)c3c(n2)N(C)CCC3)CC1`: the cytotoxicity at 70.5 h was -2.67%.
Consider `CCC(C)CS(=O)(=O)NCCc1csc(N2CCCC2)n1` (centres undefined), for which the cytotoxicity at 70.5 h is -1.21%.
For `O=C1NCC2(CCCN(Cc3ccncc3)C2)Oc2ccccc21` (centres undefined), the cytotoxicity at 70.5 h was -8.47%.
As to `Cc1cc(CCCC(=O)NC2CCN(C)C2=O)c(C)s1` (centres undefined), the cytotoxicity at 70.5 h is -9.64%.
As to `CCOc1ccccc1OC1CCN(C(=O)c2c[nH]nn2)CC1`, the cytotoxicity at 70.5 h is -0.281%.
To `O=C(CCNc1ccc(Cl)cn1)NCc1ccncc1` belongs -8.13%.
For the molecule `COCC(=O)N(C)Cc1ccc(Cl)c(Cl)c1`, the cytotoxicity at 70.5 h is -12.6%.
Turning to `O=c1ccc2c(n1Cc1cccnc1)CCN(Cc1ccoc1)CC2`, the cytotoxicity at 70.5 h was 4.28%.
To `CCc1cccc(OC2CN(C(=O)[C@@H](N)[C@@H](C)O)C2)c1` belongs -8.46%; to `Cc1cccc(OC2CCN(C(=O)c3ccc4ncsc4c3)CC2)n1`, 0.229%.
To `CN(C)C(=O)CN1C[C@H]2CCN(C(=O)c3ccccc3)CC[C@H]2S1(=O)=O` belongs -10.6%; to `CC(=O)N(Cc1ncc(C)o1)C1CCN(CCc2ccncc2)C1` (centres undefined), 7.37%.
As to `CCN(CC)Cc1cn2c(n1)CN(C(=O)Cc1ccsc1)CC2`, the cytotoxicity at 70.5 h was -5.15%.
`O=C(C1CCOc2ccccc2C1)N1Cc2cnn(CCO)c2C1` (centres undefined): the cytotoxicity at 70.5 h is 9.23%.
On to `O=C(C[S+]([O-])Cc1ccc(Cl)cc1Cl)N1CCc2sccc2C1` (centres undefined), for which the cytotoxicity at 70.5 h is -3.09%.
The same measure for `CCC(Nc1nccc(C2CCCC2)n1)c1ccccn1` (centres undefined): -3.14%.
With `CC(C)(C)c1ncc(C(=O)N2CCC(N3CCSCC3)CC2)c(O)n1`, the cytotoxicity at 70.5 h is -7.4%.
To `Cc1nn(C)c(C)c1CC(=O)N1CCCN(c2cccnn2)CC1` belongs 5.97%.
On to `Cc1cc(CNc2ccccc2N2CCCCC2)no1`, for which the cytotoxicity at 70.5 h is -24%.
Consider `Cn1nc(C2CCNCC2)c2c(C(=O)NC3CC3)cc(C3CC3)nc21`, for which the cytotoxicity at 70.5 h was determined as 15%.
To `O=C(Nc1cnc2n1CCCC2)c1cccc(NC(=O)C2CCCC2)c1` belongs -8.35%.
`CC(C)c1nc(C2CCCN2C(=O)c2ccc3nncn3c2)no1` (centres undefined): the cytotoxicity at 70.5 h came out at 2.23%.
For the molecule `Cc1occc1C(=O)N1CCCC(C2=Nc3ccccc3S(=O)(=O)N2)C1` (centres undefined), the cytotoxicity at 70.5 h is -5.45%.
As to `O=S(=O)(CCN1CCCC1Cn1cccn1)c1ccccc1` (centres undefined), the cytotoxicity at 70.5 h is -13.8%.
To `CN(C)CCN1CC(C(=O)N(C)Cc2cc3cc(F)ccc3[nH]2)CC1=O` (centres undefined) belongs -7.58%.
The same measure for `Cc1nccn1-c1ccc(NC(=O)C2CCCN2Cc2c[nH]cn2)cc1` (centres undefined): 14.9%.
Regarding `Cc1csc(N2CCN(Cc3ccn(C)c(=O)c3)CC2)n1`, the cytotoxicity at 70.5 h is -5.98%.
The same measure for `CCCN(CC(=O)N1CCNCC1)C(=O)c1cccc(Cl)c1`: -15.8%; for `CNC(=O)CCc1cccc(OC2CCCC2)c1`: -12.2%; for `c1ccc(CCCN2CCN(c3ccc4nncn4n3)CC2)cc1`: 0.863%.
For `Cc1ncccc1NC(=O)[C@@H]1CC[C@@H]2[C@@H](CCN2Cc2cnn(C)c2)O1`, the cytotoxicity at 70.5 h was 13.5%.
Turning to `O=C(O)c1cnc(N2CCC(c3nccn3CC3CC3)CC2)c(Cl)c1`, the cytotoxicity at 70.5 h was -8.03%.
For the molecule `O=C(CCN1CCCCC1c1cc2ccccc2[nH]1)N1CCOCC1` (centres undefined), the cytotoxicity at 70.5 h was 8.08%.
Take `CC(C)(C)c1nnc(CN2CCCC2Cn2cncn2)o1` (centres undefined): the cytotoxicity at 70.5 h was -11.3%.
Regarding `Cc1cc(C)n(CC2CN(Cc3nnsc3Cl)CCO2)n1` (centres undefined), the cytotoxicity at 70.5 h is -13%.
`CCN(CC)CCNC(=O)c1ccc(Cl)c(NS(C)(=O)=O)c1`: the cytotoxicity at 70.5 h was 4.61%.
Regarding `CC(C)C(=O)NCc1ccc(-n2cncn2)nc1`, the cytotoxicity at 70.5 h was -4.44%.
For `COc1cccc(N2CCN(Cc3ccc4ccn(C)c4c3)CC2=O)c1`, the cytotoxicity at 70.5 h is -5.61%.
On to `CCn1cnc2c(cnn2-c2cccc(C)c2C)c1=O`, for which the cytotoxicity at 70.5 h turned out to be 45.8%.
For `CC(C)S(=O)(=O)NCC1CCCN(C(=O)c2cccnc2)C1` (centres undefined), the cytotoxicity at 70.5 h is -7.06%.
Regarding `O=C(c1ccc(CN2CC(n3cccn3)C2)cc1)N1CCCC1`, the cytotoxicity at 70.5 h was -0.354%.
For the molecule `O=C1C(Sc2nc(=O)ccn2C2CC2)CCN1c1ccccc1F` (centres undefined), the cytotoxicity at 70.5 h amounted to 2.14%.
Consider `O=C(c1ccco1)N(CC(F)(F)F)C1CCOCC1`, for which the cytotoxicity at 70.5 h is -7.66%.
Take `CCN(CC)C(=O)[C@@H]1C[C@@H](NC(=O)c2ccn(C(C)(C)C)c2)CN1C`: the cytotoxicity at 70.5 h is -4.81%.
On to `Cc1ccc(-n2cccn2)cc1S(=O)(=O)N1C[C@@H]2CC[C@H](C1)N(C)C2`, for which the cytotoxicity at 70.5 h was -1.91%.
Consider `CC(C)c1cc(Br)ccc1NC(=O)NC(C)(CO)CO`, for which the cytotoxicity at 70.5 h was -5%.
As for `COCCN1CCO[C@@H]2CN(C(=O)COc3ccc(C)cc3)C[C@@H]2C1`, the cytotoxicity at 70.5 h was -8.74%.
For `CN(C)Cc1nnc(C2CCN(c3ncccc3Cl)CC2)n1C1CC1`, the cytotoxicity at 70.5 h came out at 8.65%.
Take `CN1CCCN(C(=O)c2ccc3c(c2)nc(N2CCOCC2)n3C)CC1`: the cytotoxicity at 70.5 h is -8.33%.
With `CC(C)n1ccnc1CN1CCCN(C(=O)COC2CCCC2)CC1`, the cytotoxicity at 70.5 h was -3.66%.
On to `CN(C)CC(=O)N1CCOCC(Cc2ccccn2)C1` (centres undefined), for which the cytotoxicity at 70.5 h was -13.2%.
The same measure for `CC(=O)N1CC(=O)N(c2ccccc2)CC12CCN(Cc1ccsc1)C2` (centres undefined): -8.03%; for `c1cc(CNCCC2CCCO2)ccn1` (centres undefined): 5.59%; for `CCOc1ccc(NC(=O)NCCCN(C)S(C)(=O)=O)cc1C`: -15.1%.
Regarding `Cc1ccc(C)c2c(O)cc(CNCc3ccc(S(N)(=O)=O)cc3)nc12`, the cytotoxicity at 70.5 h was -4.39%.
Regarding `c1cc(C2CN(C3CCCC3)C2)n[nH]1`, the cytotoxicity at 70.5 h was -1.02%.
With `COc1ccc2c(C)c(C(=O)NCC3CN(S(C)(=O)=O)CCO3)oc2c1` (centres undefined), the cytotoxicity at 70.5 h is 16.6%.
The same measure for `CC(=O)N1CCCCC1c1nc(C)cc(-c2ccccc2C(=O)O)n1` (centres undefined): -1.42%.
In the case of `Cc1cccc(N2CCN(CCNC(=O)c3ccnn3C)CC2)c1`, the cytotoxicity at 70.5 h is -9.52%.
On to `Cc1ccc2c(c1)OC(C)(C)CC2NC(=O)C1CCN(C)CC1` (centres undefined), for which the cytotoxicity at 70.5 h is -9.96%.
For `Cc1cc(C(=O)NC2CCN(c3ncccc3C#N)CC2)on1`, the cytotoxicity at 70.5 h was -6.25%.
For `CCc1nnc2n1CCN(C(=O)c1cnc(C3CC3)s1)C2`, the cytotoxicity at 70.5 h is -9.47%.
For `COc1ccccc1OCc1cc(C(=O)N2CC=CC2C(C)C)n[nH]1` (centres undefined), the cytotoxicity at 70.5 h was -6.89%.
Turning to `CNc1cc(C2CN(CC(=O)N(C)C)CCO2)nc(C)n1` (centres undefined), the cytotoxicity at 70.5 h is -5.66%.
